Data on five molecules can be found in patent US6107292A, “Indenoindoles and benzocarbazoles as estrogenic agents” (American Home Products Corporation, priority 2000, dated 2000).

The target of assay [1] is T1, human estrogen receptor (Homo sapiens, UniProt P03372).
T1 construct: expressed in transfected cells; host or cells: Chinese Hamster Ovary (CHO) cells, stably transfected
The assay is described as follows: 2×VIT ERE Infection Assay (luciferase). The format is cell-based. The conditions noted are these: CHO, 24 h; for Emax at 1 µM: read-out: Infection Luciferase Activity, 1 uM; for activity at 1 µM: read-out: Infection Luciferase Activity, 1 uM + 17β estradiol. As for the experimental part: Chinese Hamster Ovary cells (CHO) which had been stably transfected with the human estrogen receptor were maintained in DMEM+10% fetal bovine serum (FBS). 48h prior to treatment the growth medium was replaced with DMEM lacking phenol red+10% dextran coated charcoal stripped FBS (treatment medium). Cells were plated at a density of 5000 cells/well in 96-well plates containing 200 μL of medium/well.
Reporter DNA (Promega plasmid pGL2 containing two tandem copies of the vitellogenin ERE in front of the minimal thymidine kinase promoter driving the luciferase gene) was combined with the B-galactosidase expression plasmid pCH 110 (Pharmacia) and carrier DNA (pTZ18U) in the following ratio:
20 uG of DNA1 mL of transfection solution
The DNA (20uG) was dissolved in 500 uL of 250 mM sterile CaCl2 and added dropwise to 500 uL of 2×HeBS (0.28 M NaCl, 50 mM HEPES, 1.5 mM Na2 HPO4, pH 7.05) and incubated at room temperature for 20 minutes. 20 uL of this mixture was added to each well of cells and remained on the cells for 16 h. […] Each treatment condition was performed on 8 wells (n=8) which were incubated for 24 h prior to the luciferase assay.
After 24 h exposure to compounds, the media was removed and each well washed 2× with 125 uL of PBS lacking Mg^++ and Ca^++. After removing the PBS, 25 uL of Promega lysis buffer was added to each well and allowed to stand at room temperature for 15 min, followed by 15 min at -80° C. and 15 min at 37° C. 20 uL of lysate was transferred to an opaque 96 well plate for luciferase activity evaluation and the remaining lysate (5 uL) was used for the B-galactosidase activity evaluation (normalize transfection). The luciferan substrate (Promega) was added in 100 uL aliquots to each well automatically by the luminometer and the light produced (relative light units) was read 10 seconds after addition.
To the remaining 5 uL of lysate 45 uL of PBS was added. Then 50 uL of Promega B-galactosidase 2× assay buffer was added, mixed well and incubated at 37° C. for 1 hour. A plate containing a standard curve (0.1 to 1.5 milliunits in triplicate) was set up for each experimental run. The plates were analyzed on a Molecular Devices spectrophotometric plate reader at 410 nm. The optical densities for the unknown were converted to milliunits of activity by mathematical extrapolation from the standard curve.
The luciferase data was generated as relative light units (RLUs) accumulated during a 10 second measurement and automatically transferred to a JMP (SAS Inc) file where background RLUs were subtracted. The B-galactosidase values were automatically imported into the file and these values were divided into the RLUs to normalize the data. The mean and standard deviations were determined from a n=8 for each treatment.

Assay [2] addresses T2, estrogen receptor (Homo sapiens, UniProt P03372).
T2 construct: made in house; host or cells: CHO cells overexpressing the receptor; 100,000 g cytosol
T2 sequence (P03372 1-595): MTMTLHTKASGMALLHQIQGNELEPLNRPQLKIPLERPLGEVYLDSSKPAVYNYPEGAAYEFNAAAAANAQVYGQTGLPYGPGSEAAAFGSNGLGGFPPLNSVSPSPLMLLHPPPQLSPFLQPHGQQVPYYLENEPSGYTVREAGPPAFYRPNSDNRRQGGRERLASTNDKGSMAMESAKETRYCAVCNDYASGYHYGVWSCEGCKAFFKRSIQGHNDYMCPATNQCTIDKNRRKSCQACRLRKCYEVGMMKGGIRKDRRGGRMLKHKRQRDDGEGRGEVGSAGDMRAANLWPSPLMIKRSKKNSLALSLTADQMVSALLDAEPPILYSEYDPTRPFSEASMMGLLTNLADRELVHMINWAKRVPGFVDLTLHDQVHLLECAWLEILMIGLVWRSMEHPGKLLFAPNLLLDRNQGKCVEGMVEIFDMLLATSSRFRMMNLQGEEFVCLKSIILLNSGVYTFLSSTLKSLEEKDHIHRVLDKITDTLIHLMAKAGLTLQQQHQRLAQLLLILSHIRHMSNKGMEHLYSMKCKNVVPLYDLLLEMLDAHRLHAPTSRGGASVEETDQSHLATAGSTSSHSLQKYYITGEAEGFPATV
Briefly: In vitro Estrogen Receptor Binding Assay. The conditions noted are these: comparison / general statement in words. The method, then: CHO cells overexpressing the estrogen receptor were grown in 150 mm^2 dishes in DMEM+10% dextran coated charcoal, stripped fetal bovine serum. The plates were washed twice with PBS and once with 10 mM Tris-HCl, pH 7.4, 1 mM EDTA. Cells were harvested by scraping the surface and then the cell suspension was placed on ice. Cells were disrupted with a hand-held motorized tissue grinder using two, 10-second bursts. The crude preparation was centrifuged at 12,000 g for 20 minutes followed by a 60 minute spin at 100,000 g to produce a ribosome free cytosol. The cytosol was then frozen and stored at -80° C. Protein concentration of the cytosol was estimated using the BCA assay with reference standard protein.
The competition assay was performed in a 96-well plate (polystyrene*) which binds <2.0% of the total input [^3 H]-17β-estradiol and each data point was gathered in triplicate. 100 uG/100 uL of the receptor preparation was aliquoted per well. A saturating dose of 2.5 nM [^3 H] […] Samples were counted to 2% or 10 minutes, whichever occurs first. […] Also, wells containing radioactivity but no cytosol were processed with charcoal to estimate unremovable DPM of [^3 H] […]
Counts per minute (CPM) of radioactivity were automatically converted to disintegrated per minute (DPM) by the Beckman LS 7500 Scintillation Counter using a set of quenched standards to generate a H# for each sample. […]

Assay [3] has as its system uterus. The conditions noted are these: ovariectomized rat; versus Tamoxifen; cited from earlier work.
Assay [4] relates to bone. The conditions noted are these: ovariectomized rat; cited from earlier work.
For assay [5], the system named is bone. The conditions noted are these: humans; cited from earlier work.
For assay [6], the system named is uterus. The conditions noted are these: in vivo; cited from earlier work.

SMILES strings stand for the structures.

Regarding `COc1ccc2c(c1)Cc1c-2n(Cc2ccc(OCCN3CCCCC3)cc2)c2ccc(O)cc12` [Example 4, 2-Methoxy-5-[4-(2-piperidin-1-yl-ethoxy)-benzyl]-5,10-dihydro-indeno[1,2-b]lindol-8ol], in assay [1], the Emax at 1 µM was -2% and the activity at 1 µM came to 83%.
Take `COc1ccc2c(c1)CCc1c-2n(Cc2ccc(OCCN3CCCCC3)cc2)c2ccc(O)cc12` [Example 13, 3-Methoxy-11-[4-(2-piperidin-1-yl-ethoxy)-benzyl]-5,11-dihydro-6H-benzof[a]carbazol-8-ol]: the “binding to the ER receptor (in words)” value in assay [2] was “bind better to the ER receptor than the indenoindole #6”. In addition, in assay [1], the Emax at 1 µM was -7% and the activity at 1 µM is 1%.
Turning to `COc1ccc2c(c1)CCc1c-2n(Cc2ccc(OCCN3CCCCCC3)cc2)c2ccc(O)cc12` [Example 14, 11-[4-(2-Azepan-1-yl-ethoxy)-benzyl]-3-methoxy-5,11-dihydro-6H-benzo[a]carbazol-8-ol], the “binding to the ER receptor (in words)” value in assay [2] was “bind better to the ER receptor than the indenoindole #6”. In assay [1], the Emax at 1 µM came to 1% and the activity at 1 µM turned out to be 8%.
As to `O=C(c1ccc(OCCN2CCCCC2)cc1)c1c(-c2ccc(O)cc2)sc2cc(O)ccc12` [Raloxifene], the uterine growth result in assay [3] is listed as “stimulate uterine growth in the ovariectornized rat to a lesser extent than Tamoxifen”. The “ability to spare bone / bone mass” value in assay [4] is “maintaining the ability to spare bone”.
Consider `CC/C(=C(\c1ccccc1)c1ccc(OCCN(C)C)cc1)c1ccccc1` [tamoxifen], for which the “effect on the bone” value in assay [5] was “estrogen agonist-like effect on the bone”. In addition, in assay [6], the “agonism in the uterus” value is “partial agonist in the uterus”.
